The results in this text go back to article PMC9161259 (ACS Omega, 2022).

The target in one data set is wild-type EGFR (Homo sapiens, UniProt P00533). The experiment in a line: ADP-Glo kinase assay, wild-type EGFR. Format: biochemical.
In a further data set the target is L858R/T790M mutant EGFR (Homo sapiens, UniProt P00533, L858R/T790M). The experiment in a line: ADP-Glo kinase assay, L858R/T790M mutant EGFR. It counts as biochemical.
Data set [1] has as its system A549 lung carcinoma cell line. Kind of data set: Cytotoxic assay. Particulars: Homo sapiens, A549, 48 h, read-out: Cytotoxic activity IC50, A549.
In data set [2] the test system is T47D hormone-dependent breast cancer cell line. Kind of data set: Cytotoxic assay. Conditions: Homo sapiens, 48 h, read-out: Cytotoxic activity IC50, T47D.
In data set [3] the test system is HepG2 hepatocellular carcinoma cell line. The experiment in a line: Cytotoxic assay. Conditions: for IC50: Homo sapiens, HepG2, 48 h, read-out: Cytotoxic activity IC50, HepG2.
The subject of data set [4] is MOLT-3 lymphoblastic leukemia cell line. The experiment in a line: Cytotoxic assay. Particulars: for IC50: Homo sapiens, MOLT-3, 48 h, read-out: Cytotoxic activity IC50, MOLT-3.
The test system of data set [5] is HuCCA-1 cholangiocarcinoma cancer cell line. Kind of data set: Cytotoxic assay. Particulars: Homo sapiens, HuCC-A1, 48 h, read-out: Cytotoxic activity IC50, HuCCA-1.
For data set [6], the system named is MDA-MB-231 hormone-independent breast cancer cell line. The experiment in a line: Cytotoxic assay. Conditions: Homo sapiens, MDA-MB-231, 48 h, read-out: Cytotoxic activity IC50, MDA-MB-231.
The next data set can be described thus: Cytotoxic assay. Particulars: human, MRC-5 normal embryonic lung cell line.

Sequence of wild-type EGFR (P00533 25-1210): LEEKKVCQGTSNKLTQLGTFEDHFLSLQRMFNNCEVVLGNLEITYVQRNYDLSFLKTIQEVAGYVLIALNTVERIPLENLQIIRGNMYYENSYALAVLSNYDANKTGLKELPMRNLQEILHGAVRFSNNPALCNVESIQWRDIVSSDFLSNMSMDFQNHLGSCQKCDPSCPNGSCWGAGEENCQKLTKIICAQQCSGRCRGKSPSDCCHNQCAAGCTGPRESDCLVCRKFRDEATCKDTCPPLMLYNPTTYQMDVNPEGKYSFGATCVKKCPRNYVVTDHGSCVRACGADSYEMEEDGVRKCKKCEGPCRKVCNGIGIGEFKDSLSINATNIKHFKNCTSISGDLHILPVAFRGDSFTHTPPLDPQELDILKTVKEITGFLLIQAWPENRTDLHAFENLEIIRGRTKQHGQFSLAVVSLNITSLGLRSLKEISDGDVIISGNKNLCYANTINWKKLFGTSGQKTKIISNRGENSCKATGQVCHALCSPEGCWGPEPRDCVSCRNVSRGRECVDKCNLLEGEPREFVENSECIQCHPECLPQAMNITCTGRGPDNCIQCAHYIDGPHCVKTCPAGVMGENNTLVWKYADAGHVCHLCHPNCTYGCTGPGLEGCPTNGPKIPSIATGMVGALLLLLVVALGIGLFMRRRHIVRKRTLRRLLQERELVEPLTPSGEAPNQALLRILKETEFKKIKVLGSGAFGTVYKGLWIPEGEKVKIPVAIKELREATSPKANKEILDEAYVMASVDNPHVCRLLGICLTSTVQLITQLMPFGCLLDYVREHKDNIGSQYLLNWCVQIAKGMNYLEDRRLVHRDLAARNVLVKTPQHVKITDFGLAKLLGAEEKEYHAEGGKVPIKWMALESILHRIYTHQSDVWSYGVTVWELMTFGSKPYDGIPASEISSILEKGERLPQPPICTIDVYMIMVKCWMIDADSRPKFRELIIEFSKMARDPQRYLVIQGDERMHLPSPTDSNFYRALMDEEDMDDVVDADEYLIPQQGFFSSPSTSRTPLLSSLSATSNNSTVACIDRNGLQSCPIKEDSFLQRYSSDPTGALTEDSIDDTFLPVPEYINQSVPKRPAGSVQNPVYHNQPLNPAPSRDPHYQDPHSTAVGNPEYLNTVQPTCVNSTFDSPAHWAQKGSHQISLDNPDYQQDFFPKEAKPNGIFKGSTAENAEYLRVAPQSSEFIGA
Sequence of L858R/T790M mutant EGFR (P00533 25-1210 T790M/L858R): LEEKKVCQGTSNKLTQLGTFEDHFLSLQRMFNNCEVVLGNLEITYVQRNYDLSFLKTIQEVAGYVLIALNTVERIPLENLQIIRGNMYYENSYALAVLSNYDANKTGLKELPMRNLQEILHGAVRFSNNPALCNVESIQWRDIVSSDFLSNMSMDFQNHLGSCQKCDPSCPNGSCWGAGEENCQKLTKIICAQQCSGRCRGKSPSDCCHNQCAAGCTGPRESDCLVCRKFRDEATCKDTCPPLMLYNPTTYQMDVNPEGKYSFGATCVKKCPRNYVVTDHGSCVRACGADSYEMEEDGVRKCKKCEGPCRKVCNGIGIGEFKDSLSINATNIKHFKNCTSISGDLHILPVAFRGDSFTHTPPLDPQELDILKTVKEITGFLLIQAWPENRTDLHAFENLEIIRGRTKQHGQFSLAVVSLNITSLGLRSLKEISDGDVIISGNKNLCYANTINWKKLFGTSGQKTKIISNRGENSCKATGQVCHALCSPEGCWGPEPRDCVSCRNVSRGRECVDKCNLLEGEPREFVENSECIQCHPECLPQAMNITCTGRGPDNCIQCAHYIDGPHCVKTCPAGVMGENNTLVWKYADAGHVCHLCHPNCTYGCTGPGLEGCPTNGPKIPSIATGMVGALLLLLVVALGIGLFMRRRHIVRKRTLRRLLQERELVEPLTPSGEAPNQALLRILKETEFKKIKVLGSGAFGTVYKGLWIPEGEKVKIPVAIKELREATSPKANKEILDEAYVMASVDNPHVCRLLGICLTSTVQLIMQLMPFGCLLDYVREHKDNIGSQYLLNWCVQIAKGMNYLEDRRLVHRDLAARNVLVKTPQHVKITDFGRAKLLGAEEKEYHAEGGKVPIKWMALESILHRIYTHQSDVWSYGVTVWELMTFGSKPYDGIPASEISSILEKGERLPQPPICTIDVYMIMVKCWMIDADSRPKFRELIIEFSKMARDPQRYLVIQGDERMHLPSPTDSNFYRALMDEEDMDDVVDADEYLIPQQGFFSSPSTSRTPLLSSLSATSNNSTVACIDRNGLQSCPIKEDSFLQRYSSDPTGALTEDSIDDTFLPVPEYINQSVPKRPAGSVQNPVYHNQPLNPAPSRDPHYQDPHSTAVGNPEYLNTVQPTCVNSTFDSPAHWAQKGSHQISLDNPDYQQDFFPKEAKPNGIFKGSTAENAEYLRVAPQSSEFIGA

Regarding `Cc1ccc(NC2=C(Cl)C(=O)c3ccccc3C2=O)cc1` [compound 3, 2-Chloro-3-(p-tolylamino)naphthalene-1,4-dione], the IC50 at wild-type EGFR was 0.00396 ± 0.00066 µM; against L858R/T790M mutant EGFR it was greater than 0.1 µM; in [1], greater than 50 µg/mL; in [2], 39.5 ± 0.3 µM; in data set [3] it was 127.4 ± 0.65 µM; in data set [4], 4.3 ± 0.46 µM. For the same molecule, the results for the IC50 in [5] and in data set [6] were 42.2 ± 1.96 µM and 10.7 ± 1.89 µM, respectively. Further, the “EGFR inhibitory activity, times higher than that of erlotinib” value on wild-type EGFR (ratio of IC50 values, wild-type EGFR) was 4 fold. In the data set “Cytotoxic assay”, this molecule returned an IC50 at 48 h of 92.43 ± 0.02 µM.
In the case of `O=C1C(Cl)=C(Nc2ccc(F)cc2)C(=O)c2ccccc21` [compound 4, 2-Chloro-3-((4-fluorophenyl)amino)naphthalene-1,4-dione], the IC50 in data set [1] was 148 ± 2.55 µM; in [2], 17.9 ± 0.76 µM; in data set [3] it was 131.9 ± 1.13 µM; in data set [4] it was 7.45 ± 1.06 µM; in data set [5] it was 58.7 ± 0.64 µM; in data set [6], 17 ± 0.2 µM. Further, the IC50 at 48 h in “Cytotoxic assay” was 20.2 ± 1.4 µM.
`O=C1C(Cl)=C(Nc2ccc(Br)cc2)C(=O)c2ccccc21` [compound 5, 2-((4-Bromophenyl)amino)-3-chloronaphthalene-1,4-dione]: the IC50 in data set [1], in [2], in [3], in data set [4], in [5] and in data set [6] was greater than 50 µg/mL in each case. Besides, the “Cytotoxic activity IC50, HepG2” value in data set [3] is “inactive”. For the same molecule, the “Cytotoxic activity IC50, MOLT-3” value in data set [4] is “inactive”. Besides, the IC50 at 48 h in the data set “Cytotoxic assay” was greater than 50 µg/mL.
As for `O=C1C(Cl)=C(Nc2ccc(I)cc2)C(=O)c2ccccc21` [compound 6, 2-Chloro-3-((4-iodophenyl)amino)naphthalene-1,4-dione], the IC50 in data set [1] is greater than 50 µg/mL; in data set [2] it was 52.5 ± 0.85 µM; in data set [3], greater than 50 µg/mL; in data set [4], 42.6 ± 8.11 µM; in [5], greater than 50 µg/mL; in [6] it was greater than 50 µg/mL. Besides, the IC50 at 48 h in the data set “Cytotoxic assay” was greater than 50 µg/mL.
Turning to `O=C1C(Cl)=C(Nc2ccc(C(F)(F)F)cc2)C(=O)c2ccccc21` [compound 7, 2-Chloro-3-((4-(trifluoromethyl)phenyl)amino)naphthalene-1,4-dione], the IC50 in data set [1] is greater than 50 µg/mL; in data set [2], 63.4 ± 2.12 µM; in data set [3] it was greater than 50 µg/mL; in data set [4] it was 7.68 ± 0.84 µM; in data set [5], greater than 50 µg/mL; in data set [6], 70.8 ± 2.19 µM. Moreover, the IC50 at 48 h in the data set “Cytotoxic assay” is greater than 50 µg/mL.
On to `O=C1C(Cl)=C(Nc2ccc([N+](=O)[O-])cc2)C(=O)c2ccccc21` [compound 8, 2-Chloro-3-((4-nitrophenyl)amino)naphthalene-1,4-dione], for which the concentration for half-maximal inhibition (IC50) was 0.0114 ± 0.00035 µM against wild-type EGFR; greater than 0.1 µM at L858R/T790M mutant EGFR; 70 ± 2.04 µM in [1]; 11.7 ± 0.19 µM in data set [2]; 86.1 ± 1.61 µM in data set [3]; 1.98 ± 0.28 µM in [4]. Further, the IC50 in data set [5] is 16.3 ± 0.98 µM; in [6], 11.1 ± 2.84 µM. The molecule also registered an IC50 at 48 h in “Cytotoxic assay” of 74.9 ± 7.21 µM.
With `N#Cc1ccc(NC2=C(Cl)C(=O)c3ccccc3C2=O)cc1` [compound 9, 4-((3-Chloro-1,4-dioxo-1,4-dihydronaphthalen-2-yl)amino)benzonitrile], the IC50 in data set [1] came out at 72.72 ± 0.21 µM; in data set [2], 11.27 ± 0.06 µM; in data set [3], 73.4 ± 2.26 µM; in data set [4] it was 1.75 ± 0.2 µM; in [5], 22.67 ± 0.09 µM; in data set [6] it was 43.08 ± 0.19 µM. For the same molecule, it took 18.4 ± 1.65 µM to reach half-maximal inhibition in “Cytotoxic assay” (IC50 at 48 h).
Turning to `O=C1C(Cl)=C(Nc2cccc([N+](=O)[O-])c2)C(=O)c2ccccc21` [compound 10, 2-Chloro-3-((3-nitrophenyl)amino)naphthalene-1,4-dione], the IC50 against wild-type EGFR is 0.0186 ± 0.00141 µM; on L858R/T790M mutant EGFR it was greater than 0.1 µM; in data set [1], 114.1 ± 0.71 µM; in [2], 19.2 ± 1.77 µM; in [3], greater than 50 µg/mL; in data set [4], 2.98 ± 0.25 µM. The IC50 in data set [5] stood at 42.1 ± 0.74 µM; in data set [6] it was 16.2 ± 0.57 µM. Further, in the data set “Cytotoxic assay”, inhibition was half-maximal at 74.53 ± 0.71 µM (IC50 at 48 h).
With `COc1ccc(NC2=C(Cl)C(=O)c3ccccc3C2=O)cc1` [compound 11, 2-Chloro-3-((4-methoxyphenyl)amino)naphthalene-1,4-dione], the IC50 in [1] was greater than 50 µg/mL; in [2], greater than 50 µg/mL; in [3], greater than 50 µg/mL; in data set [4], 17.6 ± 3.3 µM; in data set [5], greater than 50 µg/mL; in [6], 105 ± 2.72 µM. Moreover, in the data set “Cytotoxic assay”, the IC50 at 48 h was greater than 50 µg/mL.
`O=C1C(Cl)=C(Nc2ccc(O)cc2)C(=O)c2ccccc21` [compound 12, 2-Chloro-3-((4-hydroxyphenyl)amino)naphthalene-1,4-dione]: the IC50 is 30.73 ± 0.18 µM in [1]; 14.7 ± 0.43 µM in data set [2]; 22.6 ± 0.87 µM in [3]; 4.67 ± 0.24 µM in [4]; 8.21 ± 0.33 µM in data set [5]; 4.77 ± 0.07 µM in data set [6]. Moreover, in “Cytotoxic assay”, half-maximal inhibition (IC50 at 48 h) was put at 11.4 ± 3.28 µM.
With `O=C1C(Br)=C(Nc2ccccc2)C(=O)c2ccccc21` [compound 13, 2-Bromo-3-(phenylamino)naphthalene-1,4-dione], the IC50 in [1] was 27.91 ± 0.05 µM; in data set [2], 10.1 ± 0.27 µM; in [3], 20.1 ± 0.54 µM; in data set [4], 2.74 ± 0.02 µM; in [5], 15.6 ± 0.54 µM; in data set [6], 9.48 ± 2.17 µM. For the same molecule, half-maximal inhibition in the data set “Cytotoxic assay” (IC50 at 48 h) required 15.3 ± 2.67 µM.
For `O=C1C(Br)=C(Nc2ccc(F)cc2)C(=O)c2ccccc21` [compound 14, 2-Bromo-3-((4-fluorophenyl)amino)naphthalene-1,4-dione], the IC50 in data set [1] was 50 ± 3 µM; in [2], 28.5 ± 1 µM; in data set [3] it was 19.1 ± 0.82 µM; in data set [4] it was 4.65 ± 0.41 µM; in [5], 16.2 ± 1.65 µM; in data set [6], 7.54 ± 2.07 µM. Moreover, the IC50 at 48 h in “Cytotoxic assay” was 12.5 ± 0.74 µM.
Consider `O=C1C(Br)=C(Nc2ccc(Br)cc2)C(=O)c2ccccc21` [compound 15, 2-Bromo-3-((4-bromophenyl)amino)naphthalene-1,4-dione], for which the IC50 in [1] was greater than 50 µg/mL; in data set [2], greater than 50 µg/mL; in data set [3], 4.94 ± 0.02 µM; in [4], 7.17 ± 1.12 µM; in [5], 70.2 ± 1.12 µM; in data set [6], 65.5 ± 3.01 µM. In addition, the IC50 at 48 h in the data set “Cytotoxic assay” is greater than 50 µg/mL.
For the molecule `O=C1C=C(Nc2ccccc2)C(=O)c2ccccc21` [compound 16, 2-(Phenylamino)naphthalene-1,4-dione], the IC50 in data set [1] is 40.8 ± 1.51 µM; in data set [2], greater than 50 µg/mL; in [3] it was 25.1 ± 3.31 µM; in data set [4] it was greater than 50 µg/mL; in [5] it was 96.2 ± 2.84 µM; in [6] it was 30.4 ± 0.86 µM. Besides, the half-inhibitory concentration (IC50) at 48 h in “Cytotoxic assay” is greater than 50 µg/mL.
For `O=C1C=C(Nc2ccc(F)cc2)C(=O)c2ccccc21` [compound 17, 2-((4-Fluorophenyl)amino)naphthalene-1,4-dione], the IC50 in data set [1] was greater than 50 µg/mL; in data set [2] it was 88.7 ± 1.64 µM; in data set [3] it was 23.4 ± 3.45 µM; in data set [4] it was greater than 50 µg/mL; in [5] it was 9.65 ± 1.99 µM; in [6], 21.8 ± 2.95 µM. This molecule had an IC50 at 48 h in “Cytotoxic assay” of 21.6 ± 2.45 µM.
For the molecule `COc1ccc(NC2=CC(=O)c3ccccc3C2=O)cc1` [compound 18, 2-((4-Methoxyphenyl)amino)naphthalene-1,4-dione], the IC50 in [1], in [2], in data set [3], in data set [4], in data set [5] and in data set [6] was greater than 50 µg/mL each time. In addition, the IC50 at 48 h in the data set “Cytotoxic assay” is greater than 50 µg/mL.
For `COc1cccc2c1C(=O)c1c(O)c3c(c(O)c1C2=O)C[C@@](O)(C(=O)CO)C[C@@H]3O[C@H]1C[C@H](N)[C@H](O)[C@H](C)O1` [doxorubicin, reference compound], the IC50 stood at 0.34 ± 0.01 µM in [1]; 1.04 ± 0.01 µM in data set [2]; 0.5 ± 0.04 µM in [3]; 0.02 µM in data set [4]; 1.17 ± 0.05 µM in data set [5]; 2.1 ± 0.06 µM in data set [6]. Besides, in “Cytotoxic assay”, the half-maximal inhibitory concentration (IC50) at 48 h is 2.67 ± 0.2 µM.
Consider `COc1cc([C@@H]2c3cc4c(cc3[C@@H](O[C@@H]3O[C@@H]5CO[C@@H](C)O[C@H]5[C@H](O)[C@H]3O)[C@H]3COC(=O)[C@H]23)OCO4)cc(OC)c1O` [etoposide, reference compound], for which the IC50 is 50 ± 3.7 µM in data set [3] and 0.05 µM in [4].
